According to patent publication US3978045A, “N^2 -dansyl-L-arginine derivatives, and the pharmaceutically acceptable acid addition salts thereof” (priority 1973, dated 1976):

Target: T1, thrombin (Bos taurus, UniProt P00735)
T1 construct: mature alpha-thrombin (light plus heavy chain) cut from prothrombin
Test: Fibrinogen coagulation time (thrombin-induced clotting of fibrinogen)
Format: biochemical
Conditions: bovine fibrinogen, borate saline buffer pH 7.4, thrombin 0.1 ml of 5 units/ml, 25°C; control coagulation time 50-55 seconds; read-out: Concentration required to prolong the coagulation time by a factor of 2
Procedure: The antithrombotic activities of the N^2 -dansyl-L-arginine derivatives of this invention were compared with those of a known antithrombotic agent, (N^2 -(p-tolylsulfonyl)-L-arginine methyl ester). by determining the fibrinogen coagulation time. The measurement of the fibrinogen coagulation time was conducted as follows:
Immediately after mixing, the reaction mixture was transferred from the ice bath to a bath thermostated at 25°C. Coagulation times were taken as the period between the time of transference to the 25°C bath and the time of the first appearance of fibrin threads.
The term "concentration required to prolong the coagulation time by a factor of two" is the concentration of an active ingredient required to prolong the normal coagulation time 50-55 seconds to 100-110 seconds.

Row | IC (2-fold clotting time) [µM] | SMILES
1 | 1 | CCCC1CCN(C(=O)[C@H](CCCNC(=N)N)NS(=O)(=O)c2cccc3c(N(C)C)cccc23)CC1 [Sample 60, 4-(n-propyl)-1-(N^2-dansyl-L-arginyl)piperidine]
2 | 1 | CC(C)C1CCN(C(=O)[C@H](CCCNC(=N)N)NS(=O)(=O)c2cccc3c(N(C)C)cccc23)CC1 [Sample 61, 4-(isopropyl)-1-(N^2-dansyl-L-arginyl)piperidine]
3 | 2.8 | COC(=O)C1CCN(C(=O)[C@H](CCCNC(=N)N)NS(=O)(=O)c2cccc3c(N(C)C)cccc23)CC1 [Sample 62, 4-methoxycarbonyl-1-(N^2-dansyl-L-arginyl)piperidine]
4 | 100 | CN(C)c1cccc2c(S(=O)(=O)N[C@@H](CCCNC(=N)N)C(=O)N3CCC(C(N)=O)CC3)cccc12 [Sample 63]
5 | 0.9 | CN(C)c1cccc2c(S(=O)(=O)N[C@@H](CCCNC(=N)N)C(=O)N3CCCCCC3)cccc12 [Sample 64, N^2 -dansyl-N,N-hexamethylene-L-argininamide]
6 | 1 | CN(C)c1cccc2c(S(=O)(=O)N[C@@H](CCCNC(=N)N)C(=O)N3CCCCCCC3)cccc12 [Sample 65, N^2 -dansyl-N,N-heptamethylene-L-argininamide]
7 | 2 | CN(C)c1cccc2c(S(=O)(=O)N[C@@H](CCCNC(=N)N)C(=O)N3CCCCCCCC3)cccc12 [Sample 66, N^2 -dansyl-N,N-octamethylene-L-argininamide]
8 | 1.5 | CN(C)c1cccc2c(S(=O)(=O)N[C@@H](CCCNC(=N)N)C(=O)N3CCOCC3)cccc12 [Sample 67, 4-(N^2-dansyl-L-arginyl)morpholine]
9 | 20 | CC1CN(C(=O)[C@H](CCCNC(=N)N)NS(=O)(=O)c2cccc3c(N(C)C)cccc23)CC(C)O1 (some centres unmarked) [Sample 68]
10 | 2 | CN1CCN(C(=O)[C@H](CCCNC(=N)N)NS(=O)(=O)c2cccc3c(N(C)C)cccc23)CC1 [Sample 71, 4-methyl-1-(N^2-dansyl-L-arginyl)piperazine]
11 | 6.5 | CN(C)c1cccc2c(S(=O)(=O)N[C@@H](CCCNC(=N)N)C(=O)N3CCCc4ccccc43)cccc12 [Sample 72, N^2-dansyl-N-(1,2,3,4-tetrahydro-1-quinolyl)argininamide]

Row | SMILES | IC (2-fold clotting time) [µM]
12 | CCC1CCN(C(=O)[C@H](CCCNC(=N)N)NS(=O)(=O)c2cccc3c(N(C)C)cccc23)CC1 [Sample 59, 4-ethyl-1-(N^2-dansyl-L-arginyl) piperidine] | 0.1
13 | CN(C)c1cccc2c(S(=O)(=O)N[C@@H](CCCNC(=N)N)C(=O)N3Cc4ccccc4C3)cccc12 [Sample 70, 2-(N^2-dansyl-L-arginyl)isoindoline] | 0.67

Test system: not listed separately
Test: Acute toxicity (LD50) by oral administration in mice
Conditions: mouse, in vivo, per kilogram of body weight

Row | SMILES | LD50 [mg/kg]
14 | CN(C)c1cccc2c(S(=O)(=O)N[C@@H](CCCNC(=N)N)C(=O)N3Cc4ccccc4C3)cccc12 [2-(N^2-dansyl-L-arginyl)isoindoline] | 1360
15 | CCC1CCN(C(=O)[C@H](CCCNC(=N)N)NS(=O)(=O)c2cccc3c(N(C)C)cccc23)CC1 [4-ethyl-1-(N^2-dansyl-L-arginyl)piperidine] | 1380
16 | CC1CCN(C(=O)[C@H](CCCNC(=N)N)NS(=O)(=O)c2cccc3c(N(C)C)cccc23)CC1 [4-methyl-1-(N^2-dansyl-L-arginyl)piperidine] | 1310
17 | CCCCOC(=O)[C@H](CCCNC(=N)N)NS(=O)(=O)c1cccc2c(N(C)C)cccc12 [N^2 -dansyl-L-arginine n-butyl ester] | > 6000
